Measurements as given in patent US20120214862A1, “MODULATION OF FACTOR 7 EXPRESSION” (ISIS Pharmaceuticals, Inc., priority 2009, published 2012).
In the oligonucleotide strings, read from the 5' end, every base follows the letter of its sugar. An asterisk marks phosphorothioate; unmarked linkages are phosphodiester. Other units and linkages are bracketed, terminal groups are in braces. A string of capitals states the bases alone. e = 2'-O-(2-methoxyethyl) (MOE); [5mC] = 5-methylcytosine; d = 2'-deoxy (DNA)

Tests used:
Assay type in all cases: cell-based
human Factor 7 mRNA [1] = test: Dose-dependent antisense inhibition of human Factor 7 in HepB3 cells, transfection with lipofectin; settings: lipofectin, HepB3 cells, 16 hours
How it was run: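 HepB3 cells (4,000/well) lipofectin-transfected with antisense oligonucleotide at 3.125 or 6.25 up to 100 nM for ~16 h. Factor 7 mRNA measured by real-time RT-PCR with primer probe set RTS 2927, adjusted to RIBOGREEN total RNA; expressed as percent inhibition versus untreated control cells.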

human Factor 7 mRNA [2] = test: Antisense inhibition of human Factor 7 mRNA in HepB3 cells, lipofectin, 50 nM, real-time RT-PCR; settings: HepB3 cells
How it was run: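 Percent inhibition of Factor 7 mRNA, relative to untreated control, comes from real-time RT-PCR with RIBOGREEN normalization, using primer probe set RTS 2927 in some runs. RNA was taken roughly 24 h after lipofectin delivery of 50 nM oligonucleotide into HepB3 cells.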

human Factor 7 mRNA [3] = test: Dose-dependent antisense inhibition of human Factor 7 in HepB3 cells, transfection with electroporation
Method: (§1) The gapmers were also transfected via electroporation and their dose-dependent inhibition of human Factor 7 mRNA was measured. Cells were plated at a density of 20,000 cells per well and transfected via electroporation with 3.125 μM, 6.25 μM, 12.5 μM, 25 μM, 50 μM, and 100 μM concentrations of antisense oligonucleotide, as specified in Table 15. After a treatment period of approximately 16 hours, RNA was isolated from the cells and Factor 7 mRNA levels were measured by quantitative real-time PCR. Human Factor 7 primer probe set RTS 2927 was used to measure mRNA levels. Factor 7 mRNA levels were adjusted according to total RNA content, as measured by RIBOGREEN®. Results are presented as percent inhibition of Factor 7, relative to untreated control cells.
as §1, with “Cells were” for “The gapmers were also transfected via electroporation and their dose-dependent inhibition of human Factor 7 mRNA was measured. Cells were”, “in Table 16. After a” for “in Table 15. After a”, “cells and human Factor 7” for “cells and Factor 7”

[4] = gapmers (5-10-5, 3-14-3, 2-13-5 MOE) targeted to nucleobases 4868 to 4899 of SEQ ID NO: 1
[5] = 3.125 μM, 16 hours (Example 7, Table 15)
[6] = 6.25 μM, 16 hours (Example 7, Table 15)
[7] = 12.5 μM, 16 hours (Example 7, Table 15)
[8] = 25 μM, 16 hours (Example 7, Table 15)
[9] = 50 μM, 16 hours (Example 7, Table 15)
[10] = 100 μM, 16 hours (Example 7, Table 15)
[11] = 3.125 μM, 16 hours (Example 8, Table 16)
[12] = 6.25 μM, 16 hours (Example 8, Table 16)
[13] = 12.5 μM, 16 hours (Example 8, Table 16)
[14] = 25 μM, 16 hours (Example 8, Table 16)
[15] = 50 μM, 16 hours (Example 8, Table 16)
[16] = 100 μM, 16 hours (Example 8, Table 16)

Row | Substance | percent inhibition of Factor 7 mRNA, relative to untreated control cells (human Factor 7 mRNA [1]; 3.125 nM) [%] | percent inhibition of Factor 7 mRNA, relative to untreated control cells (human Factor 7 mRNA [1]; 12.5 nM) [%] | percent inhibition of Factor 7 mRNA, relative to untreated control cells (human Factor 7 mRNA [1]; 25 nM) [%] | percent inhibition of Factor 7 mRNA, relative to untreated control cells (human Factor 7 mRNA [1]; 50 nM) [%] | percent inhibition of Factor 7 mRNA, relative to untreated control cells (human Factor 7 mRNA [1]; 100 nM) [%] | percent inhibition of Factor 7 mRNA, relative to untreated control cells (human Factor 7 mRNA [1]) [%] | % Inhibition of human Factor 7 mRNA levels (human Factor 7 mRNA [2]; [4]) [%] | percent inhibition of Factor 7 mRNA, relative to untreated control cells (human Factor 7 mRNA [3]; [5]) [%] | percent inhibition of Factor 7 mRNA, relative to untreated control cells (human Factor 7 mRNA [3]; [6]) [%] | percent inhibition of Factor 7 mRNA, relative to untreated control cells (human Factor 7 mRNA [3]; [7]) [%] | percent inhibition of Factor 7 mRNA, relative to untreated control cells (human Factor 7 mRNA [3]; [8]) [%] | percent inhibition of Factor 7 mRNA, relative to untreated control cells (human Factor 7 mRNA [3]; [9]) [%] | percent inhibition of Factor 7 mRNA, relative to untreated control cells (human Factor 7 mRNA [3]; [10]) [%] | % Inhibition of human Factor 7 mRNA levels (human Factor 7 mRNA [2]; gapmers targeted to nucleobases 13760 to 13789 of SEQ ID NO: 1 (Table 10)) [%] | percent inhibition of Factor 7 mRNA, relative to untreated control cells (human Factor 7 mRNA [3]; [11]) [%] | percent inhibition of Factor 7 mRNA, relative to untreated control cells (human Factor 7 mRNA [3]; [12]) [%] | percent inhibition of Factor 7 mRNA, relative to untreated control cells (human Factor 7 mRNA [3]; [13]) [%] | percent inhibition of Factor 7 mRNA, relative to untreated control cells (human Factor 7 mRNA [3]; [14]) [%] | percent inhibition of Factor 7 mRNA, relative to untreated control cells (human Factor 7 mRNA [3]; [15]) [%] | percent inhibition of Factor 7 mRNA, relative to untreated control cells (human Factor 7 mRNA [3]; [16]) [%]
1 | 422217 (antisense eG*eA*eG*dT*dT*d[5mC]*dT*dG*d[5mC]*dA*dG*dG*dA*dG*d[5mC]*dG*dG*e[5mC]*e[5mC]*eT) [compound 422217] | 8 | 45 | 63 | 79 | 83 | 18 | 75 | 15 | 19 | 29 | 55 | 61 | 83 |  |  |  |  |  |  | 
2 | 422215 (antisense eG*eT*eT*d[5mC]*dT*dG*d[5mC]*dA*dG*dG*dA*dG*d[5mC]*dG*dG*d[5mC]*d[5mC]*eT*eA*eA) [compound 422215] | 13 | 54 | 65 | 84 | 82 | 30 | 73 | 11 | 9 | 31 | 50 | 68 | 84 |  |  |  |  |  |  | 
3 | 422252 (antisense e[5mC]*eG*d[5mC]*d[5mC]*dG*dG*d[5mC]*dT*d[5mC]*dT*dG*d[5mC]*dT*d[5mC]*dA*eT*e[5mC]*e[5mC]*e[5mC]*e[5mC]) [compound 422252] | 18 | 45 | 61 | 77 | 87 | 17 |  | 23 | 12 | 26 | 38 | 58 | 80 | 70 |  |  |  |  |  | 
4 | 422296 (antisense e[5mC]*e[5mC]*dG*dA*dG*dT*dT*d[5mC]*dT*dG*d[5mC]*dA*dG*dG*dA*eG*e[5mC]*eG*eG*e[5mC]) [compound 422296] | 21 | 39 | 67 | 78 | 82 | 27 | 74 | 62 | 40 | 56 | 56 | 82 | 84 |  | 47 | 44 | 70 | 78 | 80 | 82
5 | 422292 (antisense eG*eT*dT*d[5mC]*dT*dG*d[5mC]*dA*dG*dG*dA*dG*d[5mC]*dG*dG*e[5mC]*e[5mC]*eT*eA*eA) [compound 422292] | 13 | 44 | 63 | 81 | 83 | 21 | 75 | 36 | 25 | 47 | 59 | 75 | 86 |  | 31 | 40 | 68 | 75 | 82 | 83
